Test results taken from US8937167B2 (Washington University, priority 2009, dated 2015).
pKd: −log10 of the molar value. Entries after “also recorded” stand apart in the source; their conditions may differ.

Experiments:
[1] = type: in vitro ADME; details: 64800 sec, […], pH 7.4
Protocol: Materials. The assay was carried out using Multiscreen PVDF 96-well plates (Millipore, Billerica, Mass.) using the company's Transporter Receiver Plate. The lipid (dioleyoylphosphotidylcholine (DOPC):Stearic Acid (80:20, wt %) in dodecane was obtained from Avanti Polar lipids (Alabaster, Ala.). Hank's Buffered Salt Solution (HBSS), pH 7.4 was obtained from MediaTech (Manassas, Va.).
Methods. Each of the test compounds was diluted to 2.5 mM in DMSO (Sigma, St Louis, Mo.) and further diluted prior to testing to 2.5 μM in HBSS, pH 7.4. The assay was performed using a Millipore 96-well Multiscreen-IP PAMPA plate, 5 μl of the lipid suspension was directly added to the PVDF membrane of the filter plate. Immediately following the addition of the lipid to the membrane, 200 μl of HBSS solution containing the test compound was added to the donor (upper) chamber. HBSS (300 μl) is also added to the receiver plate and the filter and receiver plates assembled and incubated overnight at room temperature in a moistened sealed bag to prevent evaporation. The concentration in the receiver plate as well as an equilibrium plate, that represents a theoretical, partition-free sample, was determined by HPLC-tandem mass spectrometry. Analysis of each compound was performed in triplicate.
Analysis. Analysis of both the acceptor and equilibrium samples were performed using an AB 3200 triple quadripole mass spectrometer linked to a Shimadzu DGU-20A HPLC with a Prevail C18 column (3 μm, 2.1×10 mm) with a flow rate of 0.35 ml/min. The mobile phase used was A: 0.1% Formic Acid in water, B: 0.1% Formic Acid in methanol. The elation gradient method is described in the table. Data acquisition and peak height determination was performed using Analyst v.1.4.2.
Calculations. The login of the effective permeability (LogPe) was calculated using the following equation
[formula] [formula] Where the drug concentration is the peak areas for the analyte and VD and VA is the volume of the donor and acceptor compartment respectively. The area is the surface area of the PVDF membrane (0.11 cm^2) and time is the incubation in seconds (64,800 sec). Each value is the mean of triplicates performed on the same day.

[2] = target: T1, FimH lectin domain (Escherichia coli, UniProt P08191); assay: biochemical; type: binding, E. coli
T1 construct: made by biotinylating FimH lectin domain^25 at a 1:1 molar ratio with NHS-PEO4-Biotin
T1 sequence (P08191 22-179): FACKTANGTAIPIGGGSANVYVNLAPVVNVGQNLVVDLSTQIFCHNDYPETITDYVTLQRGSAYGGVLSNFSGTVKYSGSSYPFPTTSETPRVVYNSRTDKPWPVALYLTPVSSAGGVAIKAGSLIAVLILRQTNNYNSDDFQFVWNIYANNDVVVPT
Protocol: Samples or buffer (200 μL per well) were dispensed into 96-well microtiter plates (Greiner Bio-One, Monroe N.C.) and maintained at 30° C. with 1000 RPM shaking. Pre-manufactured pins for individual assays were made by biotinylating FimH lectin domain^25 at a 1:1 molar ratio with NHS-PEO4-Biotin (Thermo Fisher, Rockford Ill.), diluting it to 50 μg/ml in 20 mM HEPES pH 7.5, 150 mM NaCl (HBS), immobilizing it on high-binding streptavidin-coated biosensor tips (Super Streptavidin, ForteBio, Inc., Menlo Park, Calif.) for 10 minutes at 30° C., blocking the pins with 10 μg/ml biocytin for 2 minutes, washing in HBS for 1 hour, and rinsing in 15% sucrose in HBS. Pins were then air dried for 30 minutes and stored in their original packaging with a dessicant packet. Assays were performed by re-wetting premade pins with HBS for 15 minutes, then storing them in fresh HBS until use. […] Each experimental pin was referenced to a biocytin-blocked pin to control for instrument drift and a second biocytin-blocked pin that was passed through a duplicate experiment in the same 96-well plate to control for nonspecific binding of the compound to the pin. Kinetics data and affinity constants were generated automatically by the global fitting protocol in ForteBio Data Analysis version 6.3.

[3] = system: UTI89; assay: Enumeration of bladder IBCs by LacZ staining in infected mice; type: in vivo, E. coli (UPEC); host C3H/HeN mouse; details: UTI89 pre-incubated with mannoside (as little as 10 μM); 6 hpi
Protocol: After invasion, UPEC are able to rapidly replicate to form IBCs, thus dramatically expanding in numbers. After maturation of the IBC, bacteria are able to disperse from the biomass and spread to neighboring cells to expand the buildup in bacterial numbers via next generation IBC. The ability of mannosides to block IBC formation was evaluated based on LacZ staining of whole mount bladders, a protocol developed to enumerate IBCs. Whole bladder titers were also determined by quantifying colony forming units (CFUs) at 6 hours post-infection and later time points as test compounds were further developed.
(§1) Enumeration of bladder IBCs. For bacterial pretreatment experiments, mannoside was added to the bacterial suspension and incubated for 20 min. For animal pretreatment experiments, mannoside ZFH-2056 was administered either IP (5 mg/kg) or orally (100 mg/kg) 30 min prior to inoculation with UTI89. To accurately count the number of IBCs, mice were sacrificed 6 hpi and bladders were aseptically removed, bisected, splayed on silicone plates and fixed in 2% paraformaldehyde (v/v). IBCs, readily discernable as punctate violet spots, were quantified by LacZ staining of whole bladders.
as §1, with “For” for “Enumeration of bladder IBCs. For bacterial pretreatment experiments, mannoside was added to the bacterial suspension and incubated for 20 min. For”

[4] = system: PBC-1; assay: Mouse bladder infection with TMP-SMZ resistant strain, with or without TMP-SMZ in drinking water; type: in vivo, E. coli (UPEC); host C3H/HeN mouse; details: 6 hpi, mannoside IP 30 min prior and/or TMP-SMZ 3 days in drinking water

Compound | PAMPA (LogPe) [1] | Kd, qualitative [2] | pKd ([2]; Table 20, read-out: Octet Kd) | IBC formation [3] | bladder bacterial CFUs [4]
COC(=O)c1cccc(-c2ccc(O[C@H]3O[C@H](CO)[C@@H](O)[C@H](O)[C@@H]3O)cc2)c1 [Compound 1, phenyl mannoside, reference compound] | −5.42 | picomolar range | 10.10 |  | 
CNC(=O)c1cc(C(=O)NC)cc(-c2ccc(O[C@H]3O[C@H](CO)[C@@H](O)[C@H](O)[C@@H]3O)cc2)c1 [ZFH-2056] |  |  |  | most significant reduction in IBCs; also recorded: reduced IBC formation | significant drop in bacterial load
